Measured values from US5504098A, “Benzothiazolesulfonamide derivative, method for preparing the same, and use thereof” (Asahi Kasei Kogyo Kabushiki Kaisha, priority 1993, dated 1996).
Structures can show the parent of a compound that is named as a salt.

Tests used:
[1] = biological target: T1, Myosin light chain kinase (MLCK) (Gallus gallus, UniProt P11799); experiment: Measurement of the activity to inhibit Myosin light chain kinase (MLCK); assay type: biochemical; conditions: for Ki: ATP 20, 30, 50 and 100 μM, double reciprocal plotting, substrate MLC from chicken gizzard, read-out: MLCK inhibiting activity in terms of Ki value
T1 construct: MLCK was isolated and purified by the method according to Walsh et al; from tissue
T1 sequence (P11799 935-1906): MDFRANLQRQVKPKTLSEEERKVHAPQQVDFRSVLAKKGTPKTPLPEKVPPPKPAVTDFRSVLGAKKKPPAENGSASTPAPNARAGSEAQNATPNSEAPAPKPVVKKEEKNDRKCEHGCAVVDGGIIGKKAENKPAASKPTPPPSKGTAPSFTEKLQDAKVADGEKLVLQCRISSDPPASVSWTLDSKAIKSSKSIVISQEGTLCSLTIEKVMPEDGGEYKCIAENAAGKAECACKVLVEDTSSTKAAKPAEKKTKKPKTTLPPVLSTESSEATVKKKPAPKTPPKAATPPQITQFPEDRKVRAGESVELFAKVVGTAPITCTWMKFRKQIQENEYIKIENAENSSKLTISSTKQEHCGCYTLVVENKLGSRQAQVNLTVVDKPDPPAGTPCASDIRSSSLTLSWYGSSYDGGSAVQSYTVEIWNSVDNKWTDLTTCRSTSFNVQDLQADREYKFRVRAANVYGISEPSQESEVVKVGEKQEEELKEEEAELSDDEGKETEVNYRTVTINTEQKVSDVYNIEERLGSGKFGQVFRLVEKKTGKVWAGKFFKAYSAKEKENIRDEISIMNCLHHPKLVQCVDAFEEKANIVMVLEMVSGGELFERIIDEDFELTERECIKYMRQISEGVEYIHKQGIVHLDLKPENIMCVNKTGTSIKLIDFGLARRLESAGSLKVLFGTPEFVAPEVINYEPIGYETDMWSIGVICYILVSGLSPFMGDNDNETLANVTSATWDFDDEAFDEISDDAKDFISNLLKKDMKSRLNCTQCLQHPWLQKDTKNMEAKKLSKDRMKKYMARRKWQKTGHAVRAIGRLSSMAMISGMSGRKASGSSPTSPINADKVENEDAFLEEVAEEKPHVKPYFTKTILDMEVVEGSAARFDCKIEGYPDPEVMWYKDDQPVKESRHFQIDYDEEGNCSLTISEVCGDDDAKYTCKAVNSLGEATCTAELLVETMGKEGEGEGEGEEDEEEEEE
Method: Each of compounds 1 to 10 was used as an inhibitor for MLCK. As a comparative compound, 1- 2-(6-benzothiazolesulfonylamino)ethyl!-4- 3-(phenoxy)propyl!piperazine dihydrochloride disclosed in International Patent Application Publication No. WO92/14712 was used. Measurement of an MLCK inhibiting activity of each of compounds 1 to 10 was conducted utilizing the reaction system of MLCK and an antibody specific for phosphorylated myosine light chain (MLCP). MLC was isolated from a chicken gizzard and purified by the method according to Perry et al. (Journal of Biochemistry, vol. 211, p.267-272, 1983), to thereby obtain 20 kDa of purified MLC. On the other hand, MLCK was isolated and purified by the method according to Walsh et al. (Methods in Enzymology, vol. 99, p.279-288, 1983). Calmodulin was isolated from a pig brain and purified by the method according to Yazawa (Journal of Biochemistry, vol. 87, p.1313-1320, 1980). Further, anti-MLCP antibody was prepared by using, as an antigen, a synthetic peptide which has an amino acid sequence of an MLCP amino acid fragment of 12 amino acid residues containing a serine residue (phosphorylation site of MLCP). […] The synthetic peptide was subjected to phosphorylation by MLCK in the presence of ATP, followed by purification by high performance liquid chromatography. The purified peptide was conjugated with key hole limpet hemocyanin (KLH). The conjugation efficiency thereof was 110-148 nmol peptide/mg KLH. 0.2 mg of the KLH-conjugated peptide was mixed with an adjuvant and injected to a rabbit. The injection was conducted four more times, to thereby immunize the […]. An anti-MLCP antibody was obtained from the […], and the antibody titer thereof was examined. With respect to the anti-MLCP antibody having a satisfactorily high antibody titer, an IgG fraction (anti-MLCP IgG) was obtained and purified. Measurement of the MLCK activity was conducted as follows. MLC was diluted with a phosphate buffer (PBS) to obtain a solution having a MLC concentration of 5 μg/ml. 100 μl of the solution was added to each well of 96-well immunoplate, and was allowed to stand overnight at 4° C., to thereby immobilize the MLC on the surface of each well. Each plate was washed with PBS to thereby remove the MLC which had not been immobilized. To each of the MLC-immobilized wells was added a solution containing 25 mM Tris buffer (pH 7.5), 3 mM magnesium chloride, 1 mM calcium chloride, 0.1% of 2-mercaptoethanol, 1 mg/ml bovine serum albumin, 20 μg/ml calmoduline, 0.1 μg/ml MLCK, and 20 μM of ATP, thereby initiating the reaction. Substantially the same reaction as mentioned above was repeated three more times, except that the ATP concentration was changed to 30, 50 and 100 μM. 3 Minutes after the initiation of each of the reactions, 100 μl of an aqueous 20% phosphoric acid solution was added to each well of the individual plates to terminate the reaction. Each well was washed three times with PBS containing 0.2% of Triton X-100 (TrPBS). As a primary antibody, 100 μl of anti-MLCP antibody which had been diluted 500-fold with PBS containing 0.05% Tween 20 (TwPBS) was added to each of the washed wells, and allowed to stand at room temperature for 1 hour. Each well was washed with TrPBS three times. Then, as a secondary antibody, 100 μl of peroxydase-labeled anti-rabit IgG antibody (manufactured and sold by Cappel Co., Ltd., Germany) which had been diluted 1000-fold with TwPBS was added to each well, and allowed to stand at room temperature for 1 hour. Each well was washed with TrPBS three times. To each well was added 100 μ l of a coloring agent containing 2 mg/ml orthophenylenediamine and an aqueous 0.04% hydrogen peroxide solution. When the coloring proceeded satisfactorily, 30 μl of 4.5M sulfuric acid was added to each well to terminate the reaction. The absorbance of the reaction mixture in each well was determined using a microplate reader (manufactured and sold by Bio-Rad laboratories, U.S.A.). […]

protein kinase C (PKC) = experiment: Measurement of the activity to inhibit protein kinase C (PKC); assay type: biochemical, rat; conditions: for Ki: ATP 1, 3, 5 and 10 μM, double reciprocal plotting, PKC from rat brain, read-out: PKC inhibiting activity in terms of Ki value
Method: Each of compounds 1 to 10 was used as an inhibitor for PKC. As a comparative compound, 1- 2-(6-benzothiazolesulfonylamino)ethyl!-4- 3-(phenoxy)propyl!piperazine dihydrochloride disclosed in International Patent Application Publication No. W092/14712 was used. Measurement of a PKC inhibiting activity of each of compounds 1 to 10 was conducted utilizing a kit for measuring PKC inhibiting activity (manufactured and sold by Medical and Biological Laboratories, Japan). PKC was isolated from a rat brain and purified by the method according to Inagaki et al. (Journal of Biochemistry, vol. 260, p.2922-2925, 1985). On the surface of each well of the 96-well plate of the measuring kit, a peptide which is a substrate for PKC was immobilized. To each of the wells was added a solution containing 25 mM Tris buffer (pH 7.5), 3 mM magnesium chloride, 1 mM calcium chloride, 0.1% 2-mercaptoethanol, 1 mg/ml bovine serum albumin, 50 μg/ml phosphatidylserine, 10 μg/ml PKC and 1 μM of ATP, thereby initiating the reaction. Substantially the same reaction as mentioned above was repeated three more times, except that the ATP concentration was changed to 3, 5 and 10 μM. 3 Minutes after the initiation of each of the reactions, 100 μl of an aqueous 20% phosphoric acid solution was added to each well of the individual plates to terminate the reaction. Each well was washed with TrPBS three times. 100 μl of the primary antibody included in the kit, which had been diluted 10-fold with TwPBS, was added to each of the washed wells, and allowed to stand at room temperature for 1 hour. Each well was washed with TrPBS three times. Then, as a secondary antibody, 100 μl of peroxydase-labeled anti-mouse IgG antibody (manufactured and sold by Bio-Rad laboratories, U.S.A.) which had been diluted 1000-fold with TwPBS was added to each well, and allowed to stand at room temperature for 1 hour. Each well was washed with TrPBS three times. To each well was added 100 μl of a coloring agent containing 2 mg/ml orthophenylenediamine and an aqueous 0.04% hydrogen peroxide solution. When the coloring proceeded satisfactorily, 30 μl of 4.5M sulfuric acid was added to each well to terminate the reaction. The absorbance of the reaction mixture in each well was determined using a microplate reader (manufactured and sold by Bio-Rad laboratories, u.s.a.). In order to measure the PKC inhibiting activity of each of compounds 1 to 10 and the comparative compound, each of the compounds having an appropriate concentration was individually added to the above-mentioned respective solutions having ATP concentrations of 1, 3, 5 and 10 μM and, then, the PKC activity was individually measured in terms of the absorbance in substantially the same manner as mentioned above. The PKC inhibiting activity in terms of inhibition constant (Ki) was individually obtained by double reciprocal plotting of the respective PKC activities obtained in the presence of each of compounds 1 to 10 and the comparative compound, and the respective PKC activities obtained in the absence of compounds 1 to 10 and the comparative compound.

[2] = tested on: tracheal specimens excised from guinea pigs (bronchial smooth muscle); experiment: Inhibitory effect on KCl-induced contraction of tracheal specimens excised from guinea pigs; parameters: species or system guinea pig; conditions: for Emax: Cavia porcellus, 20 mM KCl-induced contraction, maximum relaxation with 100 μM papaverine = 100%, 37 °C, 3 specimens, cumulative addition, read-out: Bronchial smooth muscle-relaxation ratio
Description: According to a method in which tracheal specimens excised from guinea pigs were used (Takagi and Ozawa, "Yakubutsugaku Jikken (Experiments in Pharmacology)", p.100-102, 1960, published by Nanzando, Japan; and Fujiwara and Shibata, "Yakurigaku Kiso Jikenho (Methods of Fundamental Experiments in Pharmacology)" p.131-134, 1982, published by Kyourin, Japan), the relaxing effect of benzothiazolesulfonamide derivatives of the present invention (compounds 1 to 10) on bronchial smooth muscle was evaluated. From male guinea pigs weighing 350 to 500 g (Hartley strain, Kuroda Junkei Dobutsu), tracheas were excised and each of the excised tracheal specimens was hung in a 20 ml Magnus tube filled with Krebs-Henseleit solution containing 3 μM indomethacin under isometric conditions (initial load: 1.5 g). The solution temperature was kept at 37 ° C. in an atmosphere containing 95% O2 and 5% CO2. […] On the other hand, each of the compounds of the present invention was dissolved in distilled water or physiological saline and, after the KCl-induced contraction became stable, the compound solution was cumulatively added into the Magnus tube. The relaxing effect of each of the compounds of the present invention on contracted tracheal specimens was evaluated and a dose-response curve was obtained. After the evaluation of the relaxing effect, 100 μM of papaverine was individually added into the Magnus tubes, to thereby obtain a maximum relaxation value. Taking the obtained maximum relaxation value as 100%, the relaxation ratio was calculated with respect to each of thee compounds of the present invention. The number of specimens tested for each compound was 3. As a comparative compound, 1- 2-(6-benzothiazolesulfonylamino)ethyl!-4- 3-(phenoxy)propyl!piperazine […] disclosed in International Patent Application Publication No. WO92/14712 was used. (2) Results of the calculations

bronchial smooth muscle = conditions: disclosed in WO92/14712; cited from earlier work

`O=S(=O)(NCCNCc1ccc2c(c1)OCO2)c1cccc2ncsc12` [Compound 7, N-2-(3,4-methylenedioxybenzylamino)ethyl!-7-benzothiazolesulfonamide hydrochloride] showed a Ki [1] of 50 µM, a Ki (protein kinase C (PKC)) of 6 µM and an Emax [2] of 96.8%.

For `O=S(=O)(NCCNCc1cccc(F)c1)c1cccc2ncsc12` [Compound 10, N-2-(3-fluorobenzylamino)ethyl!-7-benzothiazolesulfonamide hydrochloride], the Ki [1] was 55 µM, the Ki (protein kinase C (PKC)) was 7 µM and the Emax [2] was 78%.

For `O=S(=O)(NCCN1CCN(CCCOc2ccccc2)CC1)c1ccc2ncsc2c1` [1-2-(6-benzothiazolesulfonylamino)ethyl!-4-3-(phenoxy)propyl!piperazine], the “ability to relax a bronchial smooth muscle by its antihistaminic activity” value (bronchial smooth muscle) is given as “has the ability to relax a bronchial smooth muscle by its antihistaminic activity”.

`CNCCNS(=O)(=O)c1cccc2ncsc12` [Compound 5, 1-(7-benzothiazolesulfonyl)-4-methylethylenediamine hydrochloride] gave a Ki [1] of 120 µM, a Ki (protein kinase C (PKC)) of 35 µM and an Emax [2] of 22%.

Compound `O=S(=O)(c1ccc2ncsc2c1)N1CCNCC1` [Compound 6, 1-(6-benzothiazolesulfonyl)piperazine hydrochloride] has a Ki [1] of 25 µM, a Ki (protein kinase C (PKC)) of 15 µM and an Emax [2] of 27.2%.

`O=S(=O)(c1cccc2ncsc12)N1CCCNCC1` [Compound 1, 1-(7-benzothiazolesulfonyl)homopiperazine hydrochloride] gave a Ki [1] of 80 µM, a Ki (protein kinase C (PKC)) of 7 µM and an Emax [2] of 30.5%.

With `O=S(=O)(NCCN1CCN(CCCOc2ccccc2)CC1)c1ccc2ncsc2c1` [Comparative compound, 1-2-(6-benzothiazolesulfonylamino)ethyl!-4-3-(phenoxy)propyl!piperazine dihydrochloride, reference compound] the Ki [1] was > 200 µM, the “activity to inhibit myosin light chain kinase (in words)” value ([1]; conclusion from Table 1) was “no activity to inhibit the protein kinases” and the Ki (protein kinase C (PKC)) was > 200 µM. For the same compound, the “activity to inhibit protein kinase C (in words)” value (protein kinase C (PKC); conclusion from Table 1) was “no activity to inhibit the protein kinases”, the Emax [2] was 6.8% and the “ability to relax a bronchial smooth muscle of a tracheal specimen (in words)” value ([2]; KCl-induced contraction, conclusion from Table 2) was “no ability to relax such a bronchial smooth muscle”.

With `O=S(=O)(c1cccc2ncsc12)N1CCNCC1` [Compound 2, 1-(7-benzothiazolesulfonyl)piperazine hydrochloride] the Ki [1] was 50 µM, the Ki (protein kinase C (PKC)) was 5 µM and the Emax [2] was 24%.

With `CC(NCCNS(=O)(=O)c1cccc2ncsc12)c1cccc(Cl)c1` (stereo not shown) [Compound 9, N-{2-1-(3-chlorophenyl)ethyl!aminoethyl}-7-benzothiazolesulfonamide hydrochloride] the Ki [1] was 90 µM, the Ki (protein kinase C (PKC)) was 25 µM and the Emax [2] was 74.6%.

`NCCNS(=O)(=O)c1cccc2ncsc12` [Compound 4, 1-(7-benzothiazolesulfonyl)ethylenediamine hydrochloride] showed a Ki [1] of 75 µM, a Ki (protein kinase C (PKC)) of 5 µM and an Emax [2] of 33%.

`CC1CNCCN1S(=O)(=O)c1cccc2ncsc12` (stereo not shown) [Compound 3, 1-(7-benzothiazolesulfonyl)-2-methylpiperazine hydrochloride] gave a Ki [1] of 90 µM, a Ki (protein kinase C (PKC)) of 15 µM and an Emax [2] of 21.1%.

Compound `O=S(=O)(NCCNCc1cccc(Cl)c1)c1cccc2ncsc12` [Compound 8, N-2-(3-chlorobenzylamino)ethyl!-7-benzothiazolesulfonamide hydrochloride] has a Ki [1] of 55 µM, a Ki (protein kinase C (PKC)) of 5 µM and an Emax [2] of 85.7%.
